According to article PMC12130229, “Inherent fast inactivation particle of Nav channels as a new binding site for a neurotoxin” (The EMBO Journal, 2025):

Legend:
hNav1.7 = molecular target: T1, hNav1.7 (Homo sapiens, UniProt Q15858); assay type: cell-based
T1 construct: expressed in transfected cells; host or cells: HEK293T

rNav1.8 = molecular target: T2, rNav1.8 (Rattus norvegicus, UniProt Q62968); test: Patch clamp, intracellular KIFMK: block of current density (Fig 6E,F); assay type: cell-based; conditions: Fig 6F
T2 construct: expressed in transfected cells; host or cells: ND7/23
T2 sequence (Q62968 whole entry): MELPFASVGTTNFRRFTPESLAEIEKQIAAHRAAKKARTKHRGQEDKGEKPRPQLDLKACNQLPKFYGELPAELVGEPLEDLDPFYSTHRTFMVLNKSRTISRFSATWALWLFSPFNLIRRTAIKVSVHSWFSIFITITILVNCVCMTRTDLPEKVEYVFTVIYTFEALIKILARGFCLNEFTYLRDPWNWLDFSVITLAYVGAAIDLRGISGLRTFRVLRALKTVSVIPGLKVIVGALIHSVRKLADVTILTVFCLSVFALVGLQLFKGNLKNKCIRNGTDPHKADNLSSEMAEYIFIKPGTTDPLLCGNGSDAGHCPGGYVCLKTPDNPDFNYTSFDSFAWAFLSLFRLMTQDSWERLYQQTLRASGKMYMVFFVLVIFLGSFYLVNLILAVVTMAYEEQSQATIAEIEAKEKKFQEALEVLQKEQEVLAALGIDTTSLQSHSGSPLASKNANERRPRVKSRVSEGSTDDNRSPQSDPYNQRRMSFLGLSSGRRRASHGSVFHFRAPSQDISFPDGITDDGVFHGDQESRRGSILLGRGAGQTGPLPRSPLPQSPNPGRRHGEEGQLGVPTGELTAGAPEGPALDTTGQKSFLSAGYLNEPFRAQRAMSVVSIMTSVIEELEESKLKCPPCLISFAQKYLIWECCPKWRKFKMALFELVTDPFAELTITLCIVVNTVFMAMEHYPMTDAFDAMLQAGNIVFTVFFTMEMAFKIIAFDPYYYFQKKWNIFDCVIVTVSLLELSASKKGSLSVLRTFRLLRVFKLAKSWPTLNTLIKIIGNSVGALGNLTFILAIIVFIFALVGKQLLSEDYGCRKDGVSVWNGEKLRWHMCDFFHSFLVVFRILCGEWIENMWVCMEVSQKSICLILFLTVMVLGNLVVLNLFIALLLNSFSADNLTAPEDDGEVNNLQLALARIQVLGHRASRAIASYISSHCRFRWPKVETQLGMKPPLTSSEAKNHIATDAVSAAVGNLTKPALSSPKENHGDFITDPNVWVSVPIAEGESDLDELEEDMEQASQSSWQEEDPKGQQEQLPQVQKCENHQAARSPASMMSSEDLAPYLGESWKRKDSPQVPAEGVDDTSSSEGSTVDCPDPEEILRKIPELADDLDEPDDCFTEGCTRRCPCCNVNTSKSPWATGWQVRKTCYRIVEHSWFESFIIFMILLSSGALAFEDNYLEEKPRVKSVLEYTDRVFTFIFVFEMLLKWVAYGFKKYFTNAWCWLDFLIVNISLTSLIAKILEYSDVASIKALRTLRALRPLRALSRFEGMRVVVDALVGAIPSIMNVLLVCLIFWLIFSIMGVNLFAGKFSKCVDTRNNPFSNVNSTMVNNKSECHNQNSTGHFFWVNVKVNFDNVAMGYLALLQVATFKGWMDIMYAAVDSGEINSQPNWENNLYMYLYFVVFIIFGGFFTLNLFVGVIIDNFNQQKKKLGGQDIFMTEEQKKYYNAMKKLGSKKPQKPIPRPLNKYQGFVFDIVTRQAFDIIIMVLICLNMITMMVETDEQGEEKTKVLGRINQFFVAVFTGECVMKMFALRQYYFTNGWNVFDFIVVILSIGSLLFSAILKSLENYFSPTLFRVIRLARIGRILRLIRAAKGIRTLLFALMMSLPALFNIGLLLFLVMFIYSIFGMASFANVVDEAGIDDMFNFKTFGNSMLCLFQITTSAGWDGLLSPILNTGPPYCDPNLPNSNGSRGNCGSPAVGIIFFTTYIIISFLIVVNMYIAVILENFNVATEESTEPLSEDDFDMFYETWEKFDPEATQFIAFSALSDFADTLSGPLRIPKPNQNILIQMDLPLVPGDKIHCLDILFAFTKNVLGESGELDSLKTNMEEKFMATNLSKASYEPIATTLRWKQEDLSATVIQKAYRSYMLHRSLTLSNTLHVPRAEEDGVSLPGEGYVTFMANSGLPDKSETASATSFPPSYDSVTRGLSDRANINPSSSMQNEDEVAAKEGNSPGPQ

T1 sequence (Q15858 whole entry): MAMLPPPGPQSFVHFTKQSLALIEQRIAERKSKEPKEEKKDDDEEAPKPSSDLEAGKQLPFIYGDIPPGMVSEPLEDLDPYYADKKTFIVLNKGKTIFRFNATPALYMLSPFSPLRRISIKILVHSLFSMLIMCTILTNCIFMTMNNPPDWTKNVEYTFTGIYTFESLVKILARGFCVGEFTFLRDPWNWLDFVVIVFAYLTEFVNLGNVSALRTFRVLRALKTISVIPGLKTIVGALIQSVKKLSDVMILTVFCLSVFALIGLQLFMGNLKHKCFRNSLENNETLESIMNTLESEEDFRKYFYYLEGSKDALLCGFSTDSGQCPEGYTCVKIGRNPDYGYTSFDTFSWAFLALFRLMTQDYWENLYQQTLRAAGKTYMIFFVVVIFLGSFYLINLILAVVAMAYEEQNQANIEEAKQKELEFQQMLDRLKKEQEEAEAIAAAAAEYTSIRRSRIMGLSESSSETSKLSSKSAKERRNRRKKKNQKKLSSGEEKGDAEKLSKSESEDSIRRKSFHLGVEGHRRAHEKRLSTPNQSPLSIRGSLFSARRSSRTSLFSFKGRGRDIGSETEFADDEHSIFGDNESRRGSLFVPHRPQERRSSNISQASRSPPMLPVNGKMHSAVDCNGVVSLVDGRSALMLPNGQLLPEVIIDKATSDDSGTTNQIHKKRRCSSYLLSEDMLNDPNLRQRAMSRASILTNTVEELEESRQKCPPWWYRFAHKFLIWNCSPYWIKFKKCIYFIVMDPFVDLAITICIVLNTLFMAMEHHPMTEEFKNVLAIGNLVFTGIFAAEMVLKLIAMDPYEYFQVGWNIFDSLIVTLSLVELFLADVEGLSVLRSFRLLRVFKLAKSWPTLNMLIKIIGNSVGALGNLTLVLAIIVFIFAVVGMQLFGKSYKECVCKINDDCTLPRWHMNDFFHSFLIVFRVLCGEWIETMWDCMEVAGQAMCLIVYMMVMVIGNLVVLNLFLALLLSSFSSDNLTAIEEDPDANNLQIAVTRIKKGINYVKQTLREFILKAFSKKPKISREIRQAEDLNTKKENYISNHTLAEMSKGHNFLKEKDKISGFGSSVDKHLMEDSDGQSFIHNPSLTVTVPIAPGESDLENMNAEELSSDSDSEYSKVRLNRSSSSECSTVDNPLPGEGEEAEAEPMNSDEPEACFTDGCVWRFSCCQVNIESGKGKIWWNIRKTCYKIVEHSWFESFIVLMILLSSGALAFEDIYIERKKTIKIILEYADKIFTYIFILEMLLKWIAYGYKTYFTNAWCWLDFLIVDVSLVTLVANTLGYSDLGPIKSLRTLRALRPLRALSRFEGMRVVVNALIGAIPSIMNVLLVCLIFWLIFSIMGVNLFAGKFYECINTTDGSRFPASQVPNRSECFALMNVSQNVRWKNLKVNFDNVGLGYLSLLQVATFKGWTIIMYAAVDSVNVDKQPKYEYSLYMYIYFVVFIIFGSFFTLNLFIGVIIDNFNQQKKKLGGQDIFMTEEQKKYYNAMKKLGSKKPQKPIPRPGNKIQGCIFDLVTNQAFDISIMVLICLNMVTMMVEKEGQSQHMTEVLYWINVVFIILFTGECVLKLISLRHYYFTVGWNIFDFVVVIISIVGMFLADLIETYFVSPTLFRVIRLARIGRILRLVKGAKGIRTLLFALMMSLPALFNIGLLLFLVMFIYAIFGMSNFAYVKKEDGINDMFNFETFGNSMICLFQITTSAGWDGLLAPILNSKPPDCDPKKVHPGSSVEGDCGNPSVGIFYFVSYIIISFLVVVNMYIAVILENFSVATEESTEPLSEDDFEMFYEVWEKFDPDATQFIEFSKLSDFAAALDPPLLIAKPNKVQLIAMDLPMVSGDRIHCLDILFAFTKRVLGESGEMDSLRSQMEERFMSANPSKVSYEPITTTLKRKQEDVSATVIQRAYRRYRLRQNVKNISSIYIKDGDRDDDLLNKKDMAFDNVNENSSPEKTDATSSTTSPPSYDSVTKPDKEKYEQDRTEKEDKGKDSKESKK
T1 sequence (Q07699 19-218, further chain): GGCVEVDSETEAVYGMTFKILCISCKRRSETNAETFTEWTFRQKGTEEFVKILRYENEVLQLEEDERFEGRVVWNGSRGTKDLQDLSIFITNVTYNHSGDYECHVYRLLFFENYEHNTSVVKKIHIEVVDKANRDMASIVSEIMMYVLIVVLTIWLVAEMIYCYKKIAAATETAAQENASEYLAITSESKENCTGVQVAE
T1 sequence (O60939 30-215, further chain): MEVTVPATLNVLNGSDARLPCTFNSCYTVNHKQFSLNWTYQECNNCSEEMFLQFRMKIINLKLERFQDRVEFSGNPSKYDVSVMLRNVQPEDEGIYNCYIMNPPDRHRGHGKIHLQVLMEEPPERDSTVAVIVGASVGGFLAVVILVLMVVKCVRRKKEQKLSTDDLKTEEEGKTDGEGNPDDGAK

Row | SMILES | inhibition of rpTx1-evoked persistent currents (hNav1.7) | IC50 for rNav1.4 and hNav1.5 relative to that for rNav1.8 (rNav1.8)
1 | NC1=N[C@H](O)[C@H]2[C@H]3O[C@]4(O)O[C@@H]([C@@H](O)[C@@]2(N1)[C@@H]4O)[C@]3(O)CO [TTX, tetrodotoxin] | completely inhibited | –
2 | CC[C@H](C)[C@H](NC(=O)[C@@H](N)CCCCN)C(=O)N[C@@H](Cc1ccccc1)C(=O)N[C@@H](CCSC)C(=O)N[C@@H](CCCCN)C(=O)O [KIFMK] | – | two time smaller
